Each compound was assayed against T1, Full-length, GST-tagged, human CaMKIIδ (Homo sapiens, UniProt Q13557) (assay: CaMKIIδ binding assay (TR-FRET with BODIPY-labeled probe ligand)). Details: Table 2; CaMKIIδ binding assay, activity given as class A/B/C.
T1 construct: Full-Length, Glutathione-S-Transferase(GST)-Tagged, Human CaMKIIδ was purchased from Carna Biosciences; purchased Carna Biosciences 02-111
In short: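 Compounds were tested as 4-fold, eight-point series for 1 hr at room temperature, and IC50 was obtained by logistic fitting against a 3 μM parent-compound control. Signal came from displacement of a 300 nM BODIPY ligand from 0.5 nM GST-CaMKIIδ, detected via Tb-anti-GST in calmodulin/Ca2+ (pH 7.6).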

T1 sequence (Q13557 1-478 isoform Q13557-12): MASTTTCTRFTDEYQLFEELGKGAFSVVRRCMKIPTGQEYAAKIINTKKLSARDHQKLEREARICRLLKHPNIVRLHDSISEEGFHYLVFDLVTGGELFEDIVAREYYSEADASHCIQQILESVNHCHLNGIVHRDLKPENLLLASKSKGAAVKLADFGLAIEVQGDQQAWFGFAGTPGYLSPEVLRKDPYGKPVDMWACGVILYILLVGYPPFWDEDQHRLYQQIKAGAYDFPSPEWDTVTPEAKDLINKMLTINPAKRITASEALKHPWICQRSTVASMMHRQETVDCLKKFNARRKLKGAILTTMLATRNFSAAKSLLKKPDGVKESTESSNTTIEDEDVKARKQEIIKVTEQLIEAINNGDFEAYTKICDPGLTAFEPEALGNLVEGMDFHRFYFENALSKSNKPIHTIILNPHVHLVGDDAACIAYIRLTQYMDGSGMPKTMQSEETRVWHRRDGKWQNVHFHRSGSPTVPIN

SMILES	IC50
C[C@@H](Cn1cnnn1)Oc1cc(-c2cnc(Nc3cn(C4CC5(C4)CN(C4COC4)C5)nc3C(F)(F)F)nc2)ccc1Cl [Example 832, (S)-5-(3-((1-(1H-tetrazol-1-yl)propan-2-yl)oxy)-4-chlorophenyl)-N-(1-(2-(oxetan-3-yl)-2-azaspiro[3.3]heptan-6-yl)-3-(trifluoromethyl)-1H-pyrazol-4-yl)pyrimidin-2-amine]	< 10 nM
C[C@H](O)Cn1cc(Nc2ncc(-c3ccc(Cl)c(O[C@@H](C)Cn4cnnn4)c3)cn2)c(OCC(F)(F)F)n1 [Example 833, (S)-1-(4-((5-(3-(((S)-1-(1H-tetrazol-1-yl)propan-2-yl)oxy)-4-chlorophenyl)pyrimidin-2-yl)amino)-3-(2,2,2-trifluoroethoxy)-1H-pyrazol-1-yl)propan-2-ol]	< 10 nM
C[C@@H](Cn1cnnn1)Oc1cc(-c2cnc(Nc3cn([C@H]4CC[C@@H](N5CCOCC5)CC4)nc3OCC(F)F)nc2)ccc1F [Example 834, 5-(3-(((S)-1-(1H-tetrazol-1-yl)propan-2-yl)oxy)-4-fluorophenyl)-N-(3-(2,2-difluoroethoxy)-1-(cis-4-morpholinocyclohexyl)-1H-pyrazol-4-yl)pyrimidin-2-amine]	10 to 100 nM
C[C@@H](Cn1cnnn1)Oc1cc(-c2cnc(Nc3cn([C@H]4CC[C@H](N5CCOCC5)CC4)nc3OCC(F)F)nc2)ccc1F [Example 835, 5-(3-(((S)-1-(1H-tetrazol-1-yl)propan-2-yl)oxy)-4-fluorophenyl)-N-(3-(2,2-difluoroethoxy)-1-(trans-4-morpholinocyclohexyl)-1H-pyrazol-4-yl)pyrimidin-2-amine]	< 10 nM
CC(C)c1nn(C2CCC(=O)CC2)cc1Nc1ncc(-c2ccc(Cl)c(O[C@@H](C)Cn3cnnn3)c2)cn1 [Example 841, (S)-4-(4-((5-(3-((1-(1H-tetrazol-1-yl)propan-2-yl)oxy)-4-chlorophenyl)pyrimidin-2-yl)amino)-3-isopropyl-1H-pyrazol-1-yl)cyclohexan-1-one]	< 10 nM
CC(C)c1nn([C@H]2CC[C@@H](N3CCOCC3)CC2)cc1Nc1ncc(-c2ccc(Cl)c(O[C@@H](C)Cn3cnnn3)c2)cn1 [Example 842, 5-(3-(((S)-1-(1H-tetrazol-1-yl)propan-2-yl)oxy)-4-chlorophenyl)-N-(3-isopropyl-1-(cis-4-morpholinocyclohexyl)-1H-pyrazol-4-yl)pyrimidin-2-amine]	< 10 nM
C[C@@H](Cn1cnnn1)Oc1cc(-c2cnc(Nc3cn([C@H]4CC[C@H](N5[C@@H]6CC[C@H]5COC6)CC4)nc3OCC(F)F)nc2)ccc1Cl [Example 844, 5-(3-(((S)-1-(1H-tetrazol-1-yl)propan-2-yl)oxy)-4-chlorophenyl)-N-(1-(trans-4-((1R,5S)-3-oxa-8-azabicyclo[3.2.1]octan-8-yl)cyclohexyl)-3-(2,2-difluoroethoxy)-1H-pyrazol-4-yl)pyrimidin-2-amine]	< 10 nM
C[C@@H](Cn1cnnn1)Oc1cc(-c2cnc(Nc3cn(CCNC(=O)OC(C)(C)C)nc3C(F)(F)F)nc2)ccc1Cl [Example 845, tert-butyl (S)-(2-(4-((5-(3-((1-(1H-tetrazol-1-yl)propan-2-yl)oxy)-4-chlorophenyl)pyrimidin-2-yl)amino)-3-(trifluoromethyl)-1H-pyrazol-1-yl)ethyl)carbamate]	10 to 100 nM
CC(=O)NCCn1cc(Nc2ncc(-c3ccc(Cl)c(O[C@@H](C)Cn4cnnn4)c3)cn2)c(C(F)(F)F)n1 [Example 846, (S)-N-(2-(4-((5-(3-((1-(1H-tetrazol-1-yl)propan-2-yl)oxy)-4-chlorophenyl)pyrimidin-2-yl)amino)-3-(trifluoromethyl)-1H-pyrazol-1-yl)ethyl)acetamide]	10 to 100 nM
C[C@@H](Cn1cnnn1)Oc1cc(-c2cnc(Nc3cn(CC(C)(C)O)nc3C(F)(F)F)nc2)ccc1Cl [Example 847, (S)-1-(4-((5-(3-((1-(1H-tetrazol-1-yl)propan-2-yl)oxy)-4-chlorophenyl)pyrimidin-2-yl)amino)-3-(trifluoromethyl)-1H-pyrazol-1-yl)-2-methylpropan-2-ol]	< 10 nM

Source: patent US10543212B2, “Substituted amines for treating cardiac diseases” (Cardurion Pharmaceuticals, LLC, priority 2017, dated 2020)
